Assay results as given in patent US7247626B2, “Pyrazolopyrimidine derivatives and pharmaceutical compositions containing them” (SmithKline Beecham Corporation, priority 2002, dated 2007).

The compounds below were run on HSV-1 (assay: HSV-1 infection of Vero 76 cells, viral DNA hybridization capture assay). Settings: Human alphaherpesvirus 1; HSV-1 (MOI=0.001) in Vero 76 cells, 40–48 hours incubation, HSV DNA hybridization with chemiluminescence detection.
Type: cell-based
Method: Vero 76 cells were maintained in MEM with Earle's salts, L-glutamine, 8% FBS (Hyclone, A-1111-L) and 100 units/mL Penicillin-100 μg/mL Streptomycin. For assay conditions, FBS was reduced to 2%. Cells are seeded into 96-well tissue culture plates at a density of 5×10^4 cells/well after being incubated for 45 min at 37° C. in the presence of HSV-1 or HSV-2 (MOI=0.001). Test compounds are added to the wells and the plates are incubated at 37° C. for 40–48 hours. Cell lysates are prepared as follows: media was removed and replaced with 150 μL/well 0.2 N NaOH with 1% Igepal CA 630 or NP-40. Plates were incubated up to 14 days at room temperature in a humidified chamber to prevent evaporation.
For the detection probe, a gel-purified, digoxigenin-labeled, […] PCR fragment of the HSV UL-15 sequence was utilized. PCR conditions included 0.5 μM primers, 180 μM dTTP, 20 μM dUTP-digoxigenin (Boehringer Mannheim 1558706), 200 μM each of dATP, dCTP, and dGTP, 1×PCR Buffer II (Perkin Elmer), 2.5 mM, MgCl2, 0.025 units/μL of AmpliTaq Gold polyerase (Perkin Elmer), and 5 ng a gel-purified HSV DNA per 100 μL Extension conditions were 10 min at 95° C., followed by 30 cycles of 95° C. for 1 min, 55° C. for 30 sec, and 72° C. for 2 min. The amplification was completed with a 10-min incubation at 72° C. Primers were selected to amplify a 728 bp probe spanning a section of the HSV1 UL15 open reading frame (nucleotides 249–977). Single-stranded transcripts were purified with Promega M13 Wizard kits. The final product was mixed 1:1 with a mixture of 6 M GuSCN, 100 mM EDTA and 200 μg/mL herring sperm DNA and stored at 4° C.
The capture DNA plasmid (HSV UL13 region in pUC) was linearized by cutting with Xba I, denatured for 15 min at 95° C. and diluted immediately into Reacti-Bind DNA Coating Solution (Pierce, 17250, diluted 1:1 with TE buffer, pH 8) at 1 ng/μL 75 μl/well were added to Corning (#3922 or 9690) white 96-well plates and incubated at room temperature for at least 4 hrs before washing twice with 300 μL/well 0.2×SSC/0.05% Tween-20 (SSC/T buffer). The plates were then incubated overnight at room temperature with 150 μL/well 0.2 N NaOH, 1% IGEPAL and 10 μg/mL herring sperm DNA.
Twenty-seven (27) μL of cell lysate was combined with 45 μL of hydridization solution (final concentration: 3M GuSCN, 50 mM EDTA, 100 μg/ml salmon sperm DNA, 5× Denhardt's solution, 0.25× APE, and 5 ng of the digoxigenin-labeled detection probe). APE is 1.5 M NH4-acetate, 0.15 M NH4H2phosphate, and 5 mM EDTA adjusted to pH 6.0. Mineral oil (50 μL) was added to prevent evaporation. The hybridization plates were incubated at 95° C. for 10 minutes to denature the DNA, then incubated at 42° C. overnight. The wells were washed 6× with 300 μL/well SSC/T buffer then incubated with 75 μL/well anti-digoxigenin-HRP-conjugated antibody (Boehringer Mannheim 1207733, 1:5000 in TE) for 30 min at room temperature. The wells were washed 6× with 300 μL/well with PBS/0.05% Tween-20 before 75 μL/well SuperSignal LBA substrate (Pierce) was added. The plates were incubated at room temperature for 30 minutes and chemiluminescence was measured in a Wallac Vietor reader.
The following results were obtained for HSV-1.
Oc1ccc(-c2nn3c(NC4CCCC4)nccc3c2-c2ccnc(NC3CCCC3)n2)cc1 [Example 22, 4-{7-(Cyclopentylamino)-3-[2-(cyclopentylamino)pyrimidin-4-yl]pyrazolo[1,5-c]pyrimidin-2-yl}phenol] was tested, and the IC50 was 4 µM. Cc1csc(Nc2nccc(-c3c(-c4ccc(F)cc4)nn4c(NC5CCCC5)nccc34)n2)n1 [Example 15, N-Cyclopentyl-2-(4-fluorophenyl)-3-{2-[(4-methyl-1,3-thiazol-2-yl)amino]pyrimidin-4-yl}pyrazolo[1,5-c]pyrimidin-7-amine] showed an IC50 of over 40 µM. Work on CCCOc1ccc(-c2nn3c(NC4CCCC4)nccc3c2-c2ccnc(NC3CCCC3)n2)cc1 [Example 28, N-Cyclopentyl-3-[2-(cyclopentylamino)pyrimidin-4-yl]-2-(4-propoxyphenyl)pyrazolo[1,5-c]pyrimidin-7-amine] yielded an IC50 of 0.5 µM. In the case of Fc1ccc(-c2nn3c(NC4CCCC4)nccc3c2-c2ccnc(Nc3nc4ccccc4s3)n2)cc1 [Example 14, 3-[2-(1,3-Benzothiazol-2-ylamino)pyrimidin-4-yl]-N-cyclopentyl-2-(4-fluorophenyl)pyrazolo[1,5-c]pyrimidin-7-amine], the IC50 is reported as over 40 µM.
